The nature of data set [1]: Toxicology studies in mice. Format: in vivo. Particulars: repeated doses up to 100 mg/kg. An excerpt:
The novel mechanism of action combined with the stability of the circularized STAT3 decoy and its low toxicity are favorable features for clinical application. In all experiments with the STAT3 decoy, activity is compared to a mutant version with a T-A base pair replacing a G-C base pair at position 9, differing by the two nucleotides in the base pair.

Data set [2] deals with STAT1 target genes (IKBKE, IFT2, IFT1, IRF7) and NFκB target genes. Particulars: CS3D compared to CS3M treated cells. The protocol:
(§1) c-Myc is a STAT3 target gene that is known to be activated by EGF treatment. To investigate the effects of STAT3 blockade on c-Myc expression, cells were first treated with 10 ng/ml EGF for 1.5 hr (deemed the optimal time to observe increased c-Myc RNA), 24 hr after transfection of the cyclic oligonucleotides. RT-qPCR was used to assess differences in mRNA expression in STAT3 decoy-treated versus mutant decoy-treated cells (FIGS. 5A and 5B). […] Cells were treated 24 hours post-transfection with EGF (10 ng/ml) for 1.5 hr and mRNA was harvested from wild-type (A) and mutant EGFR T790M (B) NSCLC cell lines, and mRNA expression was assessed by RT-qPCR. Relative mRNA expression was normalized to GAPDH mRNA levels as an internal control. Statistical significance was determined as *P<0.05. […] Cells were treated 24 hours post-transfection with EGF (10 ng/ml) for 1.5 hr and mRNA was harvested from mutant EGFR T790M (B) NSCLC cell lines. […] Cells were is treated as in FIGS. 5A and 5B, and 3 hr after EGF treatment, lysates were collected from wild-type 201T (left) and mutant EGFR […] H1975 (right) NSCLC cell lines.

For data set [3], the system named is c-Myc protein in 201T cells. Particulars: 3 hr after EGF, compared to CS3M or lipofectamine alone. How it is done:
as §1

Data set [4] relates to c-Myc protein in H1975 cells. Particulars: H1975, 3 hr after EGF. The protocol:
as §1

Data set [5] concerns c-Myc in 201T-derived tumors. The data set is described as follows: c-Myc expression in 201T xenograft tumors (Western blot, RT-qPCR). It is filed as in vivo, nude mice. In general terms: In western blotting, separated proteins are transferred to a membrane and probed.
For data set [6], the target named is pSTAT3 and total STAT3 in H1975 cells (Homo sapiens, UniProt P40763).
The subject of data set [7] is NSCLC cells (H1975 and 201T). The data set can be described thus: Annexin V/propidium iodide apoptosis by flow cytometry. It is filed as cell-based, human. The protocol: Statistical significance was determined as *P<0.05, n=3.
Dose-response experiments assessing the relative number of metabolically active viable cells were performed by transfecting cells with increasing concentrations of CS3D or CS3M, followed by performance of MTS assays. After 72 hours, 5 mg/ml of MTS reagent was added in the plates and incubated 37° C. for 20 minutes. The plates were then read at 490 nm in a Synergy microplate reader (BioTek, Winooski, Vermont) using Gen5 2.05 software. Data obtained following treatment with C3SD or CS3M were normalized to treatment with lipofectamine alone. […] After twenty four hours of transfection, cells were resuspended in annexin V-binding buffer, incubated with 5 μL of propidium iodide (BD Biosciences) and subjected to flow cytometric analysis, using a BD FACS Canto II Flow Cytometer.
In general terms: Flow cytometry measures light scatter and fluorescence of single cells or particles in a stream.

The subject of data set [8] is NNK-induced lung preneoplasias and tumors. The data set can be described thus: NNK-induced lung tumor model for chemoprevention, second experiment. It is filed as in vivo, mice. The protocol: To confirm these findings, in a second experiment, in which 24 mg NNK was given (3 mg by ip injection, twice a wk, ×4 wks,), this was followed by one week rest and then immediate treatment with 5 mg/kg CS3D or CS3M, 3 daily injections per week, for 8 weeks. Then 1 week, 8 weeks, or 20 weeks after the end of the treatment course ([…], 21, and 33 weeks after beginning the NNK exposure), necropsy was performed. […] Lung tumors were evaluated by inspecting formalin-fixed lungs visually and by histology after H & E staining. […] Tumor burden (detected by neoplastic growths [adenomas] observed in lung sections) was also assessed at the week 1 timepoint after treatment. Consistent with reduction in preneoplasia, we observed a decrease in the average number of tumors (a 60% reduction in tumors in the CS3D-treated animal) (FIG. 14A).
The chemopreventive effect of CS3D compared to CS3M on lung tumor development was studied in an NNK-induced immunocompetent lung tumor model using the tobacco carcinogen, 4-(methylnitrosamino)-1-(3-pyridyl)-1-butanone, CAS Reg. No. 64091-91-4 (NNK) in mice. The advantages of this model are: NNK is an inducer of KRAS mutations, it is known to induce lung cancers in mice and humans, and the model is immunocompetent. In addition, this is a useful model for studying chemoprevention after exposure to a carcinogenic agent (Hecht S S, et al, Cancer Res. (1980) 40(2):298-302).
After four weeks of NNK exposure, mice are then dosed IV 2 times per week with CS3D or CS3M (5 mg/kg) for eight weeks. The mice are sacrificed after at one week, 8 weeks, and 20 weeks after the end of oligonucleotide dosing to examine lungs. Lungs are formalin-inflated and surface tumors are enumerated visually under a dissecting microscope. The area of each tumor is measured with a analysis tool built in the imaging software LAS v4.7 (Leica). Lungs are also sectioned and examined histologically by hematoxylin and eosin staining for counting the preneoplasia and tumors.

Where [9] appears, read: H1975, IL-6 50 ng/mL 1 hr, compared to CS3M or lipofectamine alone.

“And” between values parts separate entries of the source, which are not always exact repeats. Equal values may be shown once. “Also recorded” adds a separate entry of the source.

Chain of pSTAT3 and total STAT3 in H1975 cells (P40763 2-770 limits assumed): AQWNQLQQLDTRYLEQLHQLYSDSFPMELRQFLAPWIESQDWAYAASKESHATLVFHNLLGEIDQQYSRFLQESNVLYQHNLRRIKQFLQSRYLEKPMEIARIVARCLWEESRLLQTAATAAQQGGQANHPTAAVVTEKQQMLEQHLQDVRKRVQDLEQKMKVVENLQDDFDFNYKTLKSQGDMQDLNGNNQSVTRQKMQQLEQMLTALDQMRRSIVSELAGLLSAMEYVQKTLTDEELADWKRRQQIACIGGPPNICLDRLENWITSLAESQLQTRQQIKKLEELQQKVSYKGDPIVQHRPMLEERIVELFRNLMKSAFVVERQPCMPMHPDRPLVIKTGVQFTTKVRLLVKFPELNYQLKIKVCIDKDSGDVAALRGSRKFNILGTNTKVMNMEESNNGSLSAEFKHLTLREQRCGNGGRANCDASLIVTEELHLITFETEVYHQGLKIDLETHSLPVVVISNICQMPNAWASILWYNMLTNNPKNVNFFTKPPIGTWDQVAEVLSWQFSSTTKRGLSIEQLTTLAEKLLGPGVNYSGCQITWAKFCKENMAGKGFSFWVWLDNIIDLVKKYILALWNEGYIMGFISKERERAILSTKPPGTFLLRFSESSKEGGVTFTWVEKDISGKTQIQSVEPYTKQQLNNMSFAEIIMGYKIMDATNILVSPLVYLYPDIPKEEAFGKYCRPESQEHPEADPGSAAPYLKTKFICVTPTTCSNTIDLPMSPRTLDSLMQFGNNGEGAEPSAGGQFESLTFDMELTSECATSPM

For “CS3D (DNA GATTTACGGGAAATGCSCATTTCCC; cyclic decoy with two hexaethylene glycol linkers, further chemistry not given here)”, the “toxicology: body weight, organ histology, clinical chemistry” value in data set [1] was “no significant effects on body weight, organ histology, or clinical chemistry; also recorded: no appreciable changes in blood chemistry, weight or organ structure”. In addition, in data set [2], the “mRNA expression of STAT1 and NFκB target genes” value is reported as “no decrease in mRNA expression level”. Besides, the results for the “reduction in c-Myc protein expression” value in data set [3] and in data set [4] were 31% and 40%, respectively. Besides, in data set [5] (201T xenografts, CS3D vs CS3M), the “mean decrease of c-Myc protein” value turned out to be 70%. For the same substance, in data set [5] (tumor lysates of 201T and H1975 xenografts (FIG. 7E), compared to CS3M), the “reduction of c-Myc gene expression (mRNA) relative to GAPDH” value is on record as 60-70%. Moreover, the “reduction in nuclear pSTAT3” value in data set [6] (setting [9]) is 35%. In addition, in data set [6] (setting [9]), the “reduction in nuclear total STAT3” value stood at 35%. Moreover, the “effect on cytoplasmic pool of total STAT3” value in data set [6] (H1975, IL-6 stimulated) is reported as “little effect”. Besides, the “increase in number of cells undergoing apoptosis” value in data set [7] (100 nM, 24 h, compared to CS3M) was 2 fold. For the same substance, the “increase in the percent of apoptotic cells” value in data set [7] (201T and H1975, relative to CS3M) amounted to 2 fold. Besides, the “increase in number of apoptotic cells” value in data set [7] (one transfection, all 4 cell lines) is on record as 2 fold. In data set [8] (5 mg/kg for 8 weeks), the “toxicity (body weight, behavior, liver and spleen)” value was “no body weight changes were observed; also recorded: no toxicity observed”. The “higher count of preneoplasia” value in data set [8] (8 weeks after treatment ended, vs CS3M) came to 43%. In addition, the “lower number of adenomas” value in data set [8] (8 weeks post-treatment, vs CS3M) was 52%. Also, the “reduction in average number of tumors per animal” value in data set [8] (20 weeks after end of treatment, vs CS3M) is “approximately 40% and 42%”. Moreover, the lower tumor size in data set [8] (20 weeks post-treatment, vs CS3M) was 49.8% and 50%. In addition, the “fewer preneoplasias on average per animal” value in data set [8] (week 1 after 8 week treatment, 5 mg/kg, vs CS3M) is recorded as “approximately 25%”. The “reduction in average number of tumors” value in data set [8] (week 1 after 8 week treatment, vs CS3M) turned out to be 60%.

Values taken from US11932850B2, “Cancer chemoprevention with STAT3 blockers” (Jill M. Siegfried, LLC, priority 2018, dated 2024).
